Reference: US9642831B2, “Substituted chromanes and method of use” (AbbVie S.á.r.l., priority 2014, dated 2017)

Target: F508delCFTR (Homo sapiens, UniProt P13569, DEL508-508)
Assay: Cell Surface Expression-Horse Radish Peroxidase (CSE-HRP) assay
Type: cell-based
Design: expressed in transfected cells; host or cells: CFBE41o- human lung derived epithelial cell line, doxycycline-inducible
Details: CFBE4lo-F508delCFTR-HRP cells; for EC50: 18-24 hours at 33° C., 8-point curve, highest concentration 20 μM, luminescence readout; for Emax: maximum % activity at any tested concentration, normalized to on-plate positive control (3 μM Example 1)
Summary of the method: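 Following 18-24 h compound exposure at 33° C. Expression was doxycycline-induced beforehand. % activity versus DMSO and a 3 μM corrector control gave maximum activity and EC50 from a variable-Hill sigmoidal fit.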

Chain of F508delCFTR (P13569 with tags, fused parts or gaps DEL508-508): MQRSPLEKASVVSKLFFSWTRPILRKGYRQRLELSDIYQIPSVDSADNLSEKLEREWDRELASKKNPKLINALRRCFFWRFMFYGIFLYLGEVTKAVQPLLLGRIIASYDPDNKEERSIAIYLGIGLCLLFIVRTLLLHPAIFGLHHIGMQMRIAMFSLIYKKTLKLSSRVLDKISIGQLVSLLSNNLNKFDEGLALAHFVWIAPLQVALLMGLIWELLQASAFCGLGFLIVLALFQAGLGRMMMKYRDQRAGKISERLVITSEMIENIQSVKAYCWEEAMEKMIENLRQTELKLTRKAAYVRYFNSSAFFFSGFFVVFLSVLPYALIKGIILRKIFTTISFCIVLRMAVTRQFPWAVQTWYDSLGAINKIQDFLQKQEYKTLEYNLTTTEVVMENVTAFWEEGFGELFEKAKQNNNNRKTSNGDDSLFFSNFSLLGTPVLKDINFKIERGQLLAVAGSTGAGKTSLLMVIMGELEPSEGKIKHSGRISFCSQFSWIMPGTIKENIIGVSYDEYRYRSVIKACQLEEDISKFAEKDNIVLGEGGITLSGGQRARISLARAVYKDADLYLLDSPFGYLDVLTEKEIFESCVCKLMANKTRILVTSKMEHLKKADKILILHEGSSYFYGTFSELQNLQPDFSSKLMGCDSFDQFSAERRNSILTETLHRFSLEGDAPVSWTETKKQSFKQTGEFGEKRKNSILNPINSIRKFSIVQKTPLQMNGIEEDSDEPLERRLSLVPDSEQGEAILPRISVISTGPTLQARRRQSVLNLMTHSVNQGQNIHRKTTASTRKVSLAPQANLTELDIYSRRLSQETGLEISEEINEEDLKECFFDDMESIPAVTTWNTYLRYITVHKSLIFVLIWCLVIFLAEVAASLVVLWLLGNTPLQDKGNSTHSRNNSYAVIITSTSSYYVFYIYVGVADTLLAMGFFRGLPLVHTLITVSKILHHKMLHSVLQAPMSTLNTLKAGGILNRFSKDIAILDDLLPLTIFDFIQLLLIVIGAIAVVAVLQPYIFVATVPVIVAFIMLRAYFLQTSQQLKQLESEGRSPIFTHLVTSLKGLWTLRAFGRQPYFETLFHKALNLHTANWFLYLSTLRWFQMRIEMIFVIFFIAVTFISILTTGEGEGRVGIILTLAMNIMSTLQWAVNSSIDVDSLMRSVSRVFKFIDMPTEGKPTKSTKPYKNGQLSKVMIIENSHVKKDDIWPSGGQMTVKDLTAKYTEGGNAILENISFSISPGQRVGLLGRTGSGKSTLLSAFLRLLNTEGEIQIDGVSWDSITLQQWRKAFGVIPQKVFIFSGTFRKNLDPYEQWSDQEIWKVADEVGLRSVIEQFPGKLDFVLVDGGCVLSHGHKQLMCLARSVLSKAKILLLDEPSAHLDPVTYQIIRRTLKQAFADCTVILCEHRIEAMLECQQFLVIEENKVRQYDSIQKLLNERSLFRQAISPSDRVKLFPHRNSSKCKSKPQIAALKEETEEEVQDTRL

Row | Structure (SMILES) | EC50 [nM] | Emax [%]
1 | COC(=O)c1ccc2c(c1)[C@H](NC(=O)C1(c3ccc4c(c3)OC(F)(F)O4)CC1)C[C@H](c1cccc(OC)c1)O2 [Example 47, methyl (2R,4R)-4-({[1-(2,2-difluoro-1,3-benzodioxol-5-yl)cyclopropyl]carbonyl}amino)-2-(3-methoxyphenyl)-3,4-dihydro-2H-chromene-6-carboxylate] | 4000 | 43
2 | Cc1ccc2c(c1)O[C@@H](c1cccc(C(=O)NC[C@@H](O)CO)c1)C[C@H]2NC(=O)C1(c2ccc3c(c2)OC(F)(F)O3)CC1 [Example 48, 3-[(2R,4R)-4-({[1-(2,2-difluoro-1,3-benzodioxol-5-yl)cyclopropyl]carbonyl}amino)-7-methyl-3,4-dihydro-2H-chromen-2-yl]-N-[(2R)-2,3-dihydroxypropyl]benzamide] | 1000 | 104
3 | Cc1ccc2c(c1)O[C@@H](c1cccc(C(=O)N3CC[C@@H](O)C3)c1)C[C@H]2NC(=O)C1(c2ccc3c(c2)OC(F)(F)O3)CC1 [Example 49, 1-(2,2-difluoro-1,3-benzodioxol-5-yl)-N-[(2R,4R)-2-(3-{[(3R)-3-hydroxypyrrolidin-1-yl]carbonyl}phenyl)-7-methyl-3,4-dihydro-2H-chromen-4-yl]cyclopropanecarboxamide] | 970 | 105
4 | Cc1ccc2c(c1)O[C@@H](c1cccc(C(=O)NCC(O)C(F)(F)F)c1)C[C@H]2NC(=O)C1(c2ccc3c(c2)OC(F)(F)O3)CC1 (stereo partly drawn) [Example 50, 3-[(2R,4R)-4-({[1-(2,2-difluoro-1,3-benzodioxol-5-yl)cyclopropyl]carbonyl}amino)-7-methyl-3,4-dihydro-2H-chromen-2-yl]-N-(3,3,3-trifluoro-2-hydroxypropyl)benzamide] | 860 | 101
5 | Cc1ccc2c(c1)O[C@@H](c1cccc(C(=O)NCC(C)(C)O)c1)C[C@H]2NC(=O)C1(c2ccc3c(c2)OC(F)(F)O3)CC1 [Example 51, 3-[(2R,4R)-4-({[1-(2,2-difluoro-1,3-benzodioxol-5-yl)cyclopropyl]carbonyl}amino)-7-methyl-3,4-dihydro-2H-chromen-2-yl]-N-(2-hydroxy-2-methylpropyl)benzamide] | 970 | 83
6 | Cc1ccc2c(c1)O[C@@H](c1cccc(C(=O)N3CCCC(CO)C3)c1)C[C@H]2NC(=O)C1(c2ccc3c(c2)OC(F)(F)O3)CC1 (stereo partly drawn) [Example 52, 1-(2,2-difluoro-1,3-benzodioxol-5-yl)-N-[(2R,4R)-2-(3-{[3-(hydroxymethyl)piperidin-1-yl]carbonyl}phenyl)-7-methyl-3,4-dihydro-2H-chromen-4-yl]cyclopropanecarboxamide] | 1010 | 93
7 | Cc1ccc2c(c1)O[C@@H](c1cccc(C(=O)N3CCOC(CO)C3)c1)C[C@H]2NC(=O)C1(c2ccc3c(c2)OC(F)(F)O3)CC1 (stereo partly drawn) [Example 53, 1-(2,2-difluoro-1,3-benzodioxol-5-yl)-N-[(2R,4R)-2-(3-{[2-(hydroxymethyl)morpholin-4-yl]carbonyl}phenyl)-7-methyl-3,4-dihydro-2H-chromen-4-yl]cyclopropanecarboxamide] | 1760 | 90
8 | Cc1ccc2c(c1)O[C@@H](c1cccc(C(=O)NCC3(O)CCC3)c1)C[C@H]2NC(=O)C1(c2ccc3c(c2)OC(F)(F)O3)CC1 [Example 54, 3-[(2R,4R)-4-({[1-(2,2-difluoro-1,3-benzodioxol-5-yl)cyclopropyl]carbonyl}amino)-7-methyl-3,4-dihydro-2H-chromen-2-yl]-N-[(1-hydroxycyclobutyl)methyl]benzamide] | 860 | 92
9 | Cc1ccc2c(c1)O[C@@H](c1cccc(C(=O)N3CC(C)(CO)C3)c1)C[C@H]2NC(=O)C1(c2ccc3c(c2)OC(F)(F)O3)CC1 [Example 55, 1-(2,2-difluoro-1,3-benzodioxol-5-yl)-N-[(2R,4R)-2-(3-{[3-(hydroxymethyl)-3-methylazetidin-1-yl]carbonyl}phenyl)-7-methyl-3,4-dihydro-2H-chromen-4-yl]cyclopropanecarboxamide] | 2110 | 101
10 | O=C(NC1CCOc2cc(Br)ccc21)C1(c2ccc3c(c2)OC(F)(F)O3)CC1 (centres unmarked) [Example 56, N-(7-bromo-3,4-dihydro-2H-chromen-4-yl)-1-(2,2-difluoro-1,3-benzodioxol-5-yl)cyclopropanecarboxamide] | 3120 | 124
11 | O=C(NC1C[C@H](c2cccc(CO)c2)Oc2ccccc21)C1(c2ccc3c(c2)OC(F)(F)O3)CC1 (stereo partly drawn) [Example 58, 1-(2,2-difluoro-1,3-benzodioxol-5-yl)-N-{(2R)-2-[3-(hydroxymethyl)phenyl]-3,4-dihydro-2H-chromen-4-yl}cyclopropanecarboxamide] | 2540 | 101
12 | COc1ccc2c(c1)OCCC2NC(=O)C1(c2ccc3c(c2)OC(F)(F)O3)CC1 (centres unmarked) [Example 59, 1-(2,2-difluoro-1,3-benzodioxol-5-yl)-N-(7-methoxy-3,4-dihydro-2H-chromen-4-yl)cyclopropanecarboxamide] | 3660 | 101
13 | COc1ccc2c(c1)OC(c1ccccc1)CC2NC(=O)C1(c2ccc3c(c2)OC(F)(F)O3)CC1 (centres unmarked) [Example 60, 1-(2,2-difluoro-1,3-benzodioxol-5-yl)-N-(7-methoxy-2-phenyl-3,4-dihydro-2H-chromen-4-yl)cyclopropanecarboxamide] | 700 | 131
14 | COc1ccc2c(c1)OC(c1ccc(Cl)c(Cl)c1)CC2NC(=O)C1(c2ccc3c(c2)OC(F)(F)O3)CC1 (centres unmarked) [Example 61, N-[2-(3,4-dichlorophenyl)-7-methoxy-3,4-dihydro-2H-chromen-4-yl]-1-(2,2-difluoro-1,3-benzodioxol-5-yl)cyclopropanecarboxamide] | 2040 | 132
15 | COc1ccc2c(c1)OC(c1ccc(OC)c(OC)c1)CC2NC(=O)C1(c2ccc3c(c2)OC(F)(F)O3)CC1 (centres unmarked) [Example 62, 1-(2,2-difluoro-1,3-benzodioxol-5-yl)-N-[2-(3,4-dimethoxyphenyl)-7-methoxy-3,4-dihydro-2H-chromen-4-yl]cyclopropanecarboxamide] | 690 | 135
16 | COc1ccc2c(c1)OC(c1ccc(Cl)cc1)CC2NC(=O)C1(c2ccc3c(c2)OC(F)(F)O3)CC1 (centres unmarked) [Example 63, N-[2-(4-chlorophenyl)-7-methoxy-3,4-dihydro-2H-chromen-4-yl]-1-(2,2-difluoro-1,3-benzodioxol-5-yl)cyclopropanecarboxamide] | 630 | 106
17 | O=C(NC1CC(c2ccc(C(F)(F)F)cc2)Oc2ccccc21)C1(c2ccc3c(c2)OC(F)(F)O3)CC1 (centres unmarked) [Example 64, 1-(2,2-difluoro-1,3-benzodioxol-5-yl)-N-{2-[4-(trifluoromethyl)phenyl]-3,4-dihydro-2H-chromen-4-yl}cyclopropanecarboxamide] | 1610 | 78
18 | O=C(NC1CC(c2ccccc2Cl)Oc2ccccc21)C1(c2ccc3c(c2)OC(F)(F)O3)CC1 (centres unmarked) [Example 65, N-[2-(2-chlorophenyl)-3,4-dihydro-2H-chromen-4-yl]-1-(2,2-difluoro-1,3-benzodioxol-5-yl)cyclopropanecarboxamide] | 10100 | 45
19 | O=C(NC1CC(c2ccccc2)Oc2ccccc21)C1(c2ccc3c(c2)OC(F)(F)O3)CC1 (centres unmarked) [Example 67, 1-(2,2-difluoro-1,3-benzodioxol-5-yl)-N-(2-phenyl-3,4-dihydro-2H-chromen-4-yl)cyclopropanecarboxamide] | 5890 | 128
